Assay results from ChEMBL document CHEMBL1128847, “Inhibition of matrix metalloproteinases by N-carboxyalkyl peptides containing extended alkyl residues At P1'” (Bioorg Med Chem Lett, 1995).

biological target: T1, Interstitial collagenase (Homo sapiens, UniProt P03956); experiment: Inhibition of human fibroblast collagenase (MMP-1)
T1 sequence (P03956 whole entry): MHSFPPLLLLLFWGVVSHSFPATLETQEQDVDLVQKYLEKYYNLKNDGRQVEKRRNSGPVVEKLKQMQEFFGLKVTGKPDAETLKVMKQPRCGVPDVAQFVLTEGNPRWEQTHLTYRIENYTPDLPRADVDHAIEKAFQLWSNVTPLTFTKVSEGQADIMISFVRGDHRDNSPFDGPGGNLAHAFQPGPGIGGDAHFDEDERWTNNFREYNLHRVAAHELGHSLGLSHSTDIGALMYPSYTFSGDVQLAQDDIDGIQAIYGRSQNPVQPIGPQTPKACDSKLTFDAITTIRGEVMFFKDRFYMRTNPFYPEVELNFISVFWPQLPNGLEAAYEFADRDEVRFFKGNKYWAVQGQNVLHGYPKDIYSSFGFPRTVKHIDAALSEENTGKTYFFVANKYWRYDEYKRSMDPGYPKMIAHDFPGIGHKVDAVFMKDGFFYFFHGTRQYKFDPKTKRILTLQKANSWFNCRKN

Row | SMILES | Ki [nM]
1 | C[C@@H](N[C@@H](CCCCCCCCCN)C(=O)N[C@@H](CCCN=C(N)N)C(=O)Nc1ccccc1)C(=O)O | > 10000
2 | CCCCCCCC[C@H](N[C@H](C)C(=O)O)C(=O)N[C@@H](CCCN=C(N)N)C(=O)Nc1ccccc1 | > 10000
3 | CCCCCCCCCC[C@H](N[C@H](C)C(=O)O)C(=O)N[C@@H](CC(C)C)C(=O)Nc1ccccc1 | > 10000
4 | CC(C)C[C@H](NC(=O)[C@H](CCc1ccccc1)N[C@H](C)C(=O)O)C(=O)Nc1ccccc1 [L-696418] | 760
5 | CCCCCCCC[C@H](N[C@H](C)C(=O)O)C(=O)N[C@@H](CC(C)C)C(=O)Nc1ccccc1 | > 10000
6 | CC(C)C[C@H](NC(=O)[C@H](CCCCCCCCCN)N[C@H](C)C(=O)O)C(=O)Nc1ccccc1 | > 10000

biological target: 72 kDa type IV collagenase (Homo sapiens, UniProt P08253); experiment: Inhibition of human gelatinase A (MMP-2)
Sequence (P08253 whole entry): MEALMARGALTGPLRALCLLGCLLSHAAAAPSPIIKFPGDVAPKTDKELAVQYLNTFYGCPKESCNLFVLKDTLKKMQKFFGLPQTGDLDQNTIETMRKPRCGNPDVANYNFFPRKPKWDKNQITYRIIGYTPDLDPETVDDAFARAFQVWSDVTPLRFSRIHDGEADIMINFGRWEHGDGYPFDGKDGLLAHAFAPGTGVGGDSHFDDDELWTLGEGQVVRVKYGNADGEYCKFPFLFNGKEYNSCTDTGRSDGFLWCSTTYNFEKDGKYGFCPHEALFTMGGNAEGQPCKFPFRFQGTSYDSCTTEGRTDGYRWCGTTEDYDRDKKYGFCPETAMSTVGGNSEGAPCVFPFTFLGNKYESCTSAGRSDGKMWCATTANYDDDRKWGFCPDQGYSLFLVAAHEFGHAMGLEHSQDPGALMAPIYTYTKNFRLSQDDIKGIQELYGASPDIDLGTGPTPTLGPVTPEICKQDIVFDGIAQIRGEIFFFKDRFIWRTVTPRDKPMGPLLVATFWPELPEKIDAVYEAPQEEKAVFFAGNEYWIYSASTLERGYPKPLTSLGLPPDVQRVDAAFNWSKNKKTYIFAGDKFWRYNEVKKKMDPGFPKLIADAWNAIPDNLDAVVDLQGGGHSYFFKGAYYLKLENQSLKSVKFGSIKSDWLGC

Row | SMILES | Ki [nM]
7 | C[C@@H](N[C@@H](CCCCCCCCCN)C(=O)N[C@@H](CCCN=C(N)N)C(=O)Nc1ccccc1)C(=O)O | 110
8 | CCCCCCCC[C@H](N[C@H](C)C(=O)O)C(=O)N[C@@H](CCCN=C(N)N)C(=O)Nc1ccccc1 | 120
9 | CCCCCCCCCC[C@H](N[C@H](C)C(=O)O)C(=O)N[C@@H](CC(C)C)C(=O)Nc1ccccc1 | 560
10 | CC(C)C[C@H](NC(=O)[C@H](CCc1ccccc1)N[C@H](C)C(=O)O)C(=O)Nc1ccccc1 [L-696418] | 200
11 | CCCCCCCC[C@H](N[C@H](C)C(=O)O)C(=O)N[C@@H](CC(C)C)C(=O)Nc1ccccc1 | 340
12 | CC(C)C[C@H](NC(=O)[C@H](CCCCCCCCCN)N[C@H](C)C(=O)O)C(=O)Nc1ccccc1 | 500

biological target: Stromelysin-1 (Homo sapiens, UniProt P08254)
Sequence (P08254 whole entry): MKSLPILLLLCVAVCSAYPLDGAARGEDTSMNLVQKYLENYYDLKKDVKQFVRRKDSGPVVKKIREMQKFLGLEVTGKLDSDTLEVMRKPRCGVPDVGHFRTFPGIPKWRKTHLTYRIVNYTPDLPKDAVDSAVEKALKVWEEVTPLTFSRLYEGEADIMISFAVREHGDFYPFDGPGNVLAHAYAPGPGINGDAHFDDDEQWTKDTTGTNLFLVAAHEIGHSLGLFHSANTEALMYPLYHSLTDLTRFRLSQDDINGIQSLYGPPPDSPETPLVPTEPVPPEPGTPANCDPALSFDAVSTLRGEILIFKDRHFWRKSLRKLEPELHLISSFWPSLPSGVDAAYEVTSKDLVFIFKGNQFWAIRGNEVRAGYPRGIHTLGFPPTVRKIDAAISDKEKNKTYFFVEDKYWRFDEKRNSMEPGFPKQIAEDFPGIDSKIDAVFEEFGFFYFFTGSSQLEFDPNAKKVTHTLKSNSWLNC
Description: Inhibition of human fibroblast stromelysin (MMP-3)

Row | SMILES | Ki [nM]
13 | C[C@@H](N[C@@H](CCCCCCCCCN)C(=O)N[C@@H](CCCN=C(N)N)C(=O)Nc1ccccc1)C(=O)O | 370
14 | CCCCCCCC[C@H](N[C@H](C)C(=O)O)C(=O)N[C@@H](CCCN=C(N)N)C(=O)Nc1ccccc1 | 1600
15 | CCCCCCCCCC[C@H](N[C@H](C)C(=O)O)C(=O)N[C@@H](CC(C)C)C(=O)Nc1ccccc1 | 850
16 | CCCCCCCC[C@H](N[C@H](C)C(=O)O)C(=O)N[C@@H](CC(C)C)C(=O)Nc1ccccc1 | 570
17 | CC(C)C[C@H](NC(=O)[C@H](CCCCCCCCCN)N[C@H](C)C(=O)O)C(=O)Nc1ccccc1 | 240
